Holding throughout (assay type): biochemical
The target of experiment [1] is PAK1 (Homo sapiens, UniProt Q13153). The experiment in a line: Z'Lyte fluorescence-based (FRET) kinase assay, PAK1. Conditions: 50 μM ATP (Km apparent), 1 hr room temperature, 1% DMSO. The method, then: (§1) A fluorescence-based assay format is used to determine IC50 values of test compounds in vitro. Purified PAK kinase is incubated with ATP, and a test compound at various concentrations and a substrate peptide containing two fluorophores. In a second step, the reaction mix is incubated with a site-specific protease that cleaves non-phosphorylated but not phosphorylated substrate peptide, disrupting the FRET signal generated by the two fluorophores in the cleaved peptide (Z′Lyte™ Kinase assay platform; Life Technologies).
(§2) Reagents: 50 mM HEPES, pH 7.5; 0.01% BRIJ-35; 10 mM MgCl2; 1 mM EGTA, 2 uM substrate peptide Ser/Thr20 (proprietary Life Technologies Sequence), PAK enzyme [2.42-30.8 ng for PAK1, 0.29-6 ng for PAK2, 1.5-20 ng for PAK3 and 0.1-0.86 ng for PAK4; actual enzyme amounts depend on lot activity of the enzyme preparation]
(§3) Test compounds are dissolved in DMSO at various concentrations; the final DMSO concentration in the assay reaction is 1%.
(§4) ATP concentration at Km apparent is used in the assay [50 μM ATP for PAK1 assay, 75 μM ATP for PAK2 assay, 100 μM ATP for PAK3 assay, 5 μM ATP for PAK-4 assay] in a total assay volume of […] Assay reactions are incubated at room temperature for 1 hr. Following the kinase reaction, 5 μl of 1:256 dilution of development solution A (Life Technologies) is added and the reaction mix is incubated for an additional 1 hr at room temperature.
(§5) Plates are analyzed in a standard fluorescence plate reader (Tecan or equivalent) using an excitation wavelength of 400 nm and emission wavelengths of 445 nm and 520 nm. Inhibition of kinase reaction is determined by emission ratio=emission@445 nm/emission@520 nm

The target of experiment [2] is PAK4 (Homo sapiens, UniProt O96013). The experiment in a line: Z'Lyte fluorescence-based (FRET) kinase assay, PAK4. Conditions: 5 μM ATP (Km apparent), 1 hr room temperature, 1% DMSO. As to the method:
as §1, §2, §3, §4, §5

Experiment [3] deals with PAK3 (Homo sapiens, UniProt O75914). The experiment in a line: Z'Lyte fluorescence-based (FRET) kinase assay, PAK3. Conditions: 100 μM ATP (Km apparent), 1 hr room temperature, 1% DMSO. As to the method: as §1, §2, §3, §4, §5
Experiment [4] has as its target PAK2 (Homo sapiens, UniProt Q13177). The experiment in a line: Z'Lyte fluorescence-based (FRET) kinase assay, PAK2. Conditions: 75 μM ATP (Km apparent), 1 hr room temperature, 1% DMSO. The method, then:
as §1, §2, §3, §4, §5

Bounds are passed on as bounds.

Broadly, the IC50 is the midpoint of a concentration-inhibition curve.

PAK4, sequence (O96013 whole entry): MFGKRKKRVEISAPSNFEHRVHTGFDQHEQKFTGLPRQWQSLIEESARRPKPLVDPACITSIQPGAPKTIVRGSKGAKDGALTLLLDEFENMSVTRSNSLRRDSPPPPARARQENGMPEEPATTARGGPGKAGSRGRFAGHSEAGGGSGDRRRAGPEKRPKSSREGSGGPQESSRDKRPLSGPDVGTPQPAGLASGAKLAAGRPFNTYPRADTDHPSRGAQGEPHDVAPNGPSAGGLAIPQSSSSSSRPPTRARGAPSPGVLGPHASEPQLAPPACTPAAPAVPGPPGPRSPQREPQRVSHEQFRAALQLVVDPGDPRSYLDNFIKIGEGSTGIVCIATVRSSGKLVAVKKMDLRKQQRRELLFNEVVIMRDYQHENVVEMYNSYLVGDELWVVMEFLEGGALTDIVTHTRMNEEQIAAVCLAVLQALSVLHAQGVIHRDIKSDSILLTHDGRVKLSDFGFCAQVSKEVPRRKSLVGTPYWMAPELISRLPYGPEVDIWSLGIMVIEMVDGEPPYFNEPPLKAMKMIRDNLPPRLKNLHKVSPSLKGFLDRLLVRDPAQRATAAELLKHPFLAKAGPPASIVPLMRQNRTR
PAK2, sequence (Q13177 whole entry): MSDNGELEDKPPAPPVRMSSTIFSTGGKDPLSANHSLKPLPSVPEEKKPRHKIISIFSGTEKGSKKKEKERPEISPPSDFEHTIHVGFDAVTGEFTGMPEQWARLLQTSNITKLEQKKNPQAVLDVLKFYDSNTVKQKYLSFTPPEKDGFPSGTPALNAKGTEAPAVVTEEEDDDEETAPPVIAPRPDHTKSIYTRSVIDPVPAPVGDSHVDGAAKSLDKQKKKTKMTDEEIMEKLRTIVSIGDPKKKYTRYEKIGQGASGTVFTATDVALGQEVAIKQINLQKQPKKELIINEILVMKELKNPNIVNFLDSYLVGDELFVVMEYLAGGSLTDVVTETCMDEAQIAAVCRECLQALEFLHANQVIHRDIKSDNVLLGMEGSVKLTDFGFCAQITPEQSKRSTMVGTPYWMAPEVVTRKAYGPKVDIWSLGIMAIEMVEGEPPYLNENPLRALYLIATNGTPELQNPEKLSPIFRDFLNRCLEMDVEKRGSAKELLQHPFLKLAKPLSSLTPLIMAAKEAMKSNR
PAK3, sequence (O75914 whole entry): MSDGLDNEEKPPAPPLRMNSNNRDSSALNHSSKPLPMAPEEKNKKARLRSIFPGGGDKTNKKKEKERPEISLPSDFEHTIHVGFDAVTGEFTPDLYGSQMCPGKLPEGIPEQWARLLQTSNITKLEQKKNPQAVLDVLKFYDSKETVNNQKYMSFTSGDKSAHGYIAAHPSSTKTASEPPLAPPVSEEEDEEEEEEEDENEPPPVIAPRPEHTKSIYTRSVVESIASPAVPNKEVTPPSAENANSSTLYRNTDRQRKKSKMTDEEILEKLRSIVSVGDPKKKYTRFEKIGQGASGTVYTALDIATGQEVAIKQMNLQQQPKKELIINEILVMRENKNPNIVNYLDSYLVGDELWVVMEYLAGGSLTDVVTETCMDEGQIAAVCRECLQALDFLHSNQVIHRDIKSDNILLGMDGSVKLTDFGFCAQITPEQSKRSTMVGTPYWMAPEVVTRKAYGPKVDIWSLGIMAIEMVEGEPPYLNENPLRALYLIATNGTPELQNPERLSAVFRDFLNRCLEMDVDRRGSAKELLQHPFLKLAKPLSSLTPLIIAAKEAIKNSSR
PAK1, sequence (Q13153 whole entry): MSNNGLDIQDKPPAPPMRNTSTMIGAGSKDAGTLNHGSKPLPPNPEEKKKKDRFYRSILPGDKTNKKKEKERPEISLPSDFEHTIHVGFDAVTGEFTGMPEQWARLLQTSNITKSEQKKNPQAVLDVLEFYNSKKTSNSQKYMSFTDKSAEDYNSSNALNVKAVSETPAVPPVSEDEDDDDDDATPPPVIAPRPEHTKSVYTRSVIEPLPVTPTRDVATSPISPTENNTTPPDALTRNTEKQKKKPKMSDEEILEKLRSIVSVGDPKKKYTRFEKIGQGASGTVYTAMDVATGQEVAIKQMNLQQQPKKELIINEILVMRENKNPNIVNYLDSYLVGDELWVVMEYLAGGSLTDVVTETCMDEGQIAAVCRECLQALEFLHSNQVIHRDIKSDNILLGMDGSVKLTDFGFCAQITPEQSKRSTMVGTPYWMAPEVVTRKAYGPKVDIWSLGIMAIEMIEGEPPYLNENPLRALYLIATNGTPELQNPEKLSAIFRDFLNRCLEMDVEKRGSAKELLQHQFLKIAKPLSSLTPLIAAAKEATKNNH

For `COc1cccc2c1C(n1c(=O)ccc3cnc(Nc4ccc(N5CCN(C)CC5)cc4)nc31)CC2` (stereo not drawn) [Compound 1, 8-(7-methoxy-2,3-dihydro-1H-inden-1-yl)-2-(4-(4-methylpiperazin-1-yl)phenylamino)pyrido[2,3-d]pyrimidin-7(8H)-one], the IC50 is 1 to 10 µM in experiment [1], 1 to 10 µM in experiment [2], over 10 µM in experiment [3] and over 10 µM in experiment [4].
In the case of `Cc1cccc(Cl)c1Cn1c(=O)ccc2cnc(Nc3ccc(N4CCN(C)CC4)cc3)nc21` [Compound 67], the half-inhibitory concentration (IC50) in experiment [1] was under 1 µM; in experiment [2] it was under 1 µM; in experiment [3] it was 1 to 10 µM; in experiment [4] it was 1 to 10 µM.
For `CC(c1ccccc1C(F)(F)F)n1c(=O)ccc2cnc(Nc3ccc(N4CCN(C)CC4)cc3)nc21` (stereo not drawn) [Compound 70], the IC50 in experiment [1] was 1 to 10 µM; in experiment [2], 1 to 10 µM; in experiment [3], over 10 µM; in experiment [4], over 10 µM.
Turning to `CN1CCN(c2ccc(Nc3ncc4ccc(=O)n(Cc5ccccc5-c5cc(C(F)(F)F)nn5C)c4n3)cc2)CC1` [Compound 76], the IC50 in experiment [1] was 1 to 10 µM; in experiment [2], over 10 µM; in experiment [3], 1 to 10 µM; in experiment [4] it was 1 to 10 µM.
In the case of `CN1CCN(c2ccc(Nc3ncc4ccc(=O)n(Cc5c(Cl)cccc5-c5ccccc5)c4n3)cc2)CC1` [Compound 82], the concentration for half-maximal inhibition (IC50) was 1 to 10 µM in experiment [1], 1 to 10 µM in experiment [2], over 10 µM in experiment [3] and over 10 µM in experiment [4].
As for `CN1CCN(c2ccc(Nc3ncc4ccc(=O)n(Cc5c(Cl)cccc5-c5cccs5)c4n3)cc2)CC1` [Compound 83], the concentration for half-maximal inhibition (IC50) was 1 to 10 µM in experiment [1], over 10 µM in experiment [2], over 10 µM in experiment [3] and over 10 µM in experiment [4].
For `COc1cc(Nc2nccc(-c3ccc(NCCN)nc3)n2)cc(OC)c1OC` [Compound 95], the 50% inhibitory concentration (IC50) was under 1 µM in experiment [1], under 1 µM in experiment [2], 1 to 10 µM in experiment [3] and 1 to 10 µM in experiment [4].
Regarding `CN1CCN(c2ccc(Nc3nccc(-c4ccc(NCCN5CCCCC5)nc4)n3)cc2)CC1` [Compound 100], the 50% inhibitory concentration (IC50) was 1 to 10 µM in experiment [1], under 1 µM in experiment [2], over 10 µM in experiment [3] and 1 to 10 µM in experiment [4].
Take `CC(C)CNc1ccc(-c2ccnc(Nc3ccc(N4CCN(C)CC4)cc3)n2)cn1` [Compound 104]: the IC50 was 1 to 10 µM in experiment [1], under 1 µM in experiment [2], over 10 µM in experiment [3] and 1 to 10 µM in experiment [4].
Turning to `Cc1cc(Nc2nccc(-c3ccc(NCCN4CCCCC4)nc3)n2)ccc1N1CCN(C)CC1` [Compound 107], the 50% inhibitory concentration (IC50) in experiment [1] was 1 to 10 µM; in experiment [2] it was under 1 µM; in experiment [3], over 10 µM; in experiment [4], 1 to 10 µM.
Take `CN1CCN(c2ccc(Nc3nccc(-c4ccc(N)nc4)n3)cc2)CC1` [Compound 108]: the IC50 is 1 to 10 µM in experiment [1], 1 to 10 µM in experiment [2], over 10 µM in experiment [3] and 1 to 10 µM in experiment [4].
Regarding `CCNc1ccc(-c2ccnc(Nc3ccc(N4CCN(C)CC4)cc3)n2)cn1` [Compound 109], the half-inhibitory concentration (IC50) was 1 to 10 µM in experiment [1], under 1 µM in experiment [2], over 10 µM in experiment [3] and over 10 µM in experiment [4].
As for `CN1CCN(c2ccc(Nc3nccc(-c4ccc(N(C)CCN)nc4)n3)cc2)CC1` [Compound 110], the IC50 was 1 to 10 µM in experiment [1], 1 to 10 µM in experiment [2], over 10 µM in experiment [3] and 1 to 10 µM in experiment [4].
With `CN1CCN(c2cccc(Nc3nccc(-c4ccc(NCCN)nc4)n3)c2)CC1` [Compound 112], the IC50 is 1 to 10 µM in experiment [1], under 1 µM in experiment [2], over 10 µM in experiment [3] and 1 to 10 µM in experiment [4].
Take `CC(=O)N1CCN(c2ccc(Nc3nccc(-c4ccc(NCCN)nc4)n3)cc2)CC1` [Compound 115]: the IC50 is over 10 µM in experiment [1], under 1 µM in experiment [2], over 10 µM in experiment [3] and over 10 µM in experiment [4].

For the origin of these results see patent publication US8674095B2, “Compounds for treating neuropsychiatric conditions” (Afraxis Holdings, Inc., priority 2008, dated 2014).
